According to patent publication US10604527B2, “Pyrazine compounds for the treatment of hepatitis B infection” (Hoffmann-La Roche Inc., priority 2016, dated 2020):

Tested on: HBV
Experiment: HBV inhibition assay in HepG2.2.15 cells (extracellular HBV DNA by qPCR)
Type: cell-based
Details: Hepatitis B virus, 120 h, extracellular HBV DNA in culture supernatant by qPCR, five days after compound treatment
Procedure: HepG2.2.15 is a stably-transfected cell line containing the HBV genome. It is derived from the hepatoblastoma cell line Hep G2 (American Type Culture Collection, ATCC® HB-8065™) by the published procedures described in reference: M A Selles et al. Proc. Natl. Acad. Sci. USA 1987, 84, 1005-1009. The cell line was maintained in Dulbecco's modified Eagle's medium (DMEM)-F12 medium supplemented with 10% fetal bovine serum, 20 mM L-glutamine, 0.1 mM NEAA, 50 U/mL penicillin, 50 μg/mL streptomycin, and 0.3 mg/mL of G418.
HepG2.2.15 cells were seeded into 96-well plates at a density of 3×10^4 cells per well in 100 μL DMEM/F12 media (Life Science, Cat. #: 11320-033) supplemented with 2.5% fetal bovine serum, 20 mM L-glutamine, 0.1 mM NEAA, 50 U/mL penicillin, 50 U/mL streptomycin and cultured overnight at 37° C. The test compounds were serially half-log diluted in DMSO, then diluted 100 times in culture media. 100 μL diluted solution of tested compounds were added into the plates to reach 0.5% final concentration of DMSO in every well. Five days after compound treatment, culture supernatant was collected for further analysis.
For quantitative PCR detection of extracellular HBV DNA, culture supernatant was processed by 500 μg/mL Proteinase K (Sigma, Cat. #: P2308) digestion at 50° C. for 1 hour. After heat inactivation of the enzyme at 95° C. for 15 minutes, the samples were subjected to HBV DNA quantification by qPCR. The effective compound concentration at which HBV replication inhibited by 50% (EC50) was determined.

| Compound | EC50 [nM] |
| --- | --- |
| CC(C)Oc1cnn2c1CN(C(=O)Nc1ccc(F)c(Cl)c1)C(C)C2 (centres unmarked) [Example 1, N-(3-chloro-4-fluoro-phenyl)-3-isopropoxy-6-methyl-6,7-dihydro-4H-pyrazolo[1,5-a]pyrazine-5-carboxamide] | 18 |
| CC1Cn2ncc(OC3CCCC3)c2CN1C(=O)Nc1ccc(F)c(Cl)c1 (centres unmarked) [Example 2, N-(3-chloro-4-fluoro-phenyl)-3-(cyclopentoxy)-6-methyl-6,7-dihydro-4H-pyrazolo[1,5-a]pyrazine-5-carboxamide] | 8 |
| C[C@H]1Cn2ncc(OC3CCOC3)c2CN1C(=O)Nc1ccc(F)c(Cl)c1 (stereo partly drawn) [Example 3, (6S)-N-(3-chloro-4-fluoro-phenyl)-6-methyl-3-tetrahydrofuran-3-yloxy-6,7-dihydro-4H-pyrazolo[1,5-a]pyrazine-5-carboxamide] | 151 |
| C[C@H]1Cn2ncc(OC3CCOCC3)c2CN1C(=O)Nc1ccc(F)c(Cl)c1 [Example 4, (6S)-N-(3-chloro-4-fluoro-phenyl)-6-methyl-3-tetrahydropyran-4-yloxy-6,7-dihydro-4H-pyrazolo[1,5-a]pyrazine-5-carboxamide] | 107 |
| C[C@H]1Cn2ncc(OC3CCNC3=O)c2CN1C(=O)Nc1ccc(F)c(Cl)c1 (stereo partly drawn) [Example 5, (6S)-N-(3-chloro-4-fluoro-phenyl)-6-methyl-3-(2-oxopyrrolidin-3-yl)oxy-6,7-dihydro-4H-pyrazolo[1,5-a]pyrazine-5-carboxamide] | 434 |
| C[C@H]1Cn2ncc(OC3CCN(S(C)(=O)=O)CC3)c2CN1C(=O)Nc1ccc(F)c(Cl)c1 [Example 6, (6S)-N-(3-chloro-4-fluoro-phenyl)-6-methyl-3-[(1-methylsulfonyl-4-piperidyl)oxy]-6,7-dihydro-4H-pyrazolo[1,5-a]pyrazine-5-carboxamide] | 310 |
| C[C@H]1Cn2ncc(Oc3ccccn3)c2CN1C(=O)Nc1cc(F)c(F)c(F)c1 [Example 7, (6S)-6-methyl-3-(2-pyridyloxy)-N-(3,4,5-trifluorophenyl)-6,7-dihydro-4H-pyrazolo[1,5-a]pyrazine-5-carboxamide] | 984 |
| C[C@H]1Cn2ncc(Oc3ncccn3)c2CN1C(=O)Nc1cc(F)c(F)c(F)c1 [Example 8, (6S)-6-methyl-3-pyrimidin-2-yloxy-N-(3,4,5-trifluorophenyl)-6,7-dihydro-4H-pyrazolo[1,5-a]pyrazine-5-carboxamide] | 713 |
| C[C@H]1Cn2ncc(Oc3ccc(F)cn3)c2CN1C(=O)Nc1cc(F)c(F)c(F)c1 [Example 9, (6S)-3-[(5-fluoro-2-pyridyl)oxy]-6-methyl-N-(3,4,5-trifluorophenyl)-6,7-dihydro-4H-pyrazolo[1,5-a]pyrazine-5-carboxamide] | 240 |
| CC1Cn2ncc(S(=O)(=O)C3CCOC3)c2CN1C(=O)Nc1ccc(F)c(Cl)c1 (centres unmarked) [Example 10, N-(3-chloro-4-fluoro-phenyl)-6-methyl-3-tetrahydrofuran-3-ylsulfonyl-6,7-dihydro-4H-pyrazolo[1,5-a]pyrazine-5-carboxamide] | 32 |
| CC1Cn2ncc(S(=O)(=O)C3CCCC3)c2CN1C(=O)Nc1ccc(F)c(Cl)c1 (centres unmarked) [Example 11, N-(3-chloro-4-fluoro-phenyl)-3-cyclopentylsulfonyl-6-methyl-6,7-dihydro-4H-pyrazolo[1,5-a]pyrazine-5-carboxamide] | 11 |
| CC1Cn2ncc(S(=O)(=O)C(C)C)c2CN1C(=O)Nc1ccc(F)c(Cl)c1 (centres unmarked) [Example 12, N-(3-chloro-4-fluoro-phenyl)-3-isopropylsulfonyl-6-methyl-6,7-dihydro-4H-pyrazolo[1,5-a]pyrazine-5-carboxamide] | 11 |
| CC(C)CS(=O)(=O)c1cnn2c1CN(C(=O)Nc1ccc(F)c(Cl)c1)C(C)C2 (centres unmarked) [Example 13, N-(3-chloro-4-fluoro-phenyl)-3-isobutylsulfonyl-6-methyl-6,7-dihydro-4H-pyrazolo[1,5-a]pyrazine-5-carboxamide] | 24 |
| C[C@H]1Cn2ncc(S(=O)(=O)C3CCOC3)c2CN1C(=O)Nc1ccc(F)c(Cl)c1 (stereo partly drawn) [Example 14, (6S)-N-(3-chloro-4-fluoro-phenyl)-6-methyl-3-tetrahydrofuran-3-ylsulfonyl-6,7-dihydro-4H-pyrazolo[1,5-a]pyrazine-5-carboxamide] | 55 |
| C[C@H]1Cn2ncc(S(=O)(=O)C3CCOCC3)c2CN1C(=O)Nc1ccc(F)c(Cl)c1 [Example 15, (6S)-N-(3-chloro-4-fluoro-phenyl)-6-methyl-3-tetrahydropyran-4-ylsulfonyl-6,7-dihydro-4H-pyrazolo[1,5-a]pyrazine-5-carboxamide] | 97 |
| C[C@H]1Cn2ncc(S(=O)(=O)C3CCOC3)c2CN1C(=O)Nc1cc(F)c(F)c(F)c1 (stereo partly drawn) [Example 16, (6S)-6-methyl-3-tetrahydrofuran-3-ylsulfonyl-N-(3,4,5-trifluorophenyl)-6,7-dihydro-4H-pyrazolo[1,5-a]pyrazine-5-carboxamide] | 77 |
| C[C@H]1Cn2ncc(S(=O)(=O)C3CCOC3)c2CN1C(=O)Nc1ccnc(Cl)c1 (stereo partly drawn) [Example 17, (6S)-N-(2-chloro-4-pyridyl)-6-methyl-3-tetrahydrofuran-3-ylsulfonyl-6,7-dihydro-4H-pyrazolo[1,5-a]pyrazine-5-carboxamide] | 871 |
| CC(C)S(=O)(=O)c1cnn2c1CN(C(=O)Nc1ccnc(Cl)c1)[C@@H](C)C2 [Example 18, (6S)-N-(2-chloro-4-pyridyl)-3-isopropylsulfonyl-6-methyl-6,7-dihydro-4H-pyrazolo[1,5-a]pyrazine-5-carboxamide] | 471 |
| C[C@H]1Cn2ncc(S(=O)(=O)C3CCCC3)c2CN1C(=O)Nc1ccnc(Cl)c1 [Example 19, (6S)-N-(2-chloro-4-pyridyl)-3-cyclopentylsulfonyl-6-methyl-6,7-dihydro-4H-pyrazolo[1,5-a]pyrazine-5-carboxamide] | 134 |
| CC(C)S(=O)(=O)c1cnn2c1CN(C(=O)Nc1cc(F)c(F)c(F)c1)[C@@H](C)C2 [Example 20, (6S)-3-isopropylsulfonyl-6-methyl-N-(3,4,5-trifluorophenyl)-6,7-dihydro-4H-pyrazolo[1,5-a]pyrazine-5-carboxamide] | 21 |
| CC(C)S(=O)(=O)c1cnn2c1CN(C(=O)Nc1ccnc(C(F)F)c1)[C@@H](C)C2 [Example 21, (6S)-N-[2-(difluoromethyl)-4-pyridyl]-3-isopropylsulfonyl-6-methyl-6,7-dihydro-4H-pyrazolo[1,5-a]pyrazine-5-carboxamide] | 272 |
| C[C@H]1Cn2ncc(S(=O)(=O)C3CC3)c2CN1C(=O)Nc1cc(F)c(F)c(F)c1 [Example 22, (6S)-3-cyclopropylsulfonyl-6-methyl-N-(3,4,5-trifluorophenyl)-6,7-dihydro-4H-pyrazolo[1,5-a]pyrazine-5-carboxamide] | 78 |
| C[C@H]1Cn2ncc(S(=O)(=O)N3CCCC3)c2CN1C(=O)Nc1ccc(F)c(Cl)c1 [Example 23, (6S)-N-(3-chloro-4-fluoro-phenyl)-6-methyl-3-pyrrolidin-1-ylsulfonyl-6,7-dihydro-4H-pyrazolo[1,5-a]pyrazine-5-carboxamide] | 78 |
| C[C@H]1Cn2ncc(S(=O)(=O)N(C)C)c2CN1C(=O)Nc1ccc(F)c(Cl)c1 [Example 24, (6S)-N-(3-chloro-4-fluoro-phenyl)-3-(dimethylsulfamoyl)-6-methyl-6,7-dihydro-4H-pyrazolo[1,5-a]pyrazine-5-carboxamide] | 142 |
| CC(C)NS(=O)(=O)c1cnn2c1CN(C(=O)Nc1ccc(F)c(Cl)c1)[C@@H](C)C2 [Example 25, (6S)-N-(3-chloro-4-fluoro-phenyl)-3-(isopropylsulfamoyl)-6-methyl-6,7-dihydro-4H-pyrazolo[1,5-a]pyrazine-5-carboxamide] | 82 |
| C[C@H]1Cn2ncc(S(=O)(=O)N[C@H]3CCOC3)c2CN1C(=O)Nc1ccc(F)c(Cl)c1 [Example 26, (6S)-N-(3-chloro-4-fluoro-phenyl)-6-methyl-3-[[(3S)-tetrahydrofuran-3-yl]sulfamoyl]-6,7-dihydro-4H-pyrazolo[1,5-a]pyrazine-5-carboxamide] | 365 |
| C[C@H]1Cn2ncc(S(=O)(=O)NC(C)(C)CO)c2CN1C(=O)Nc1cc(F)c(F)c(F)c1 [Example 27, (6S)-3-[(2-hydroxy-1,1-dimethyl-ethyl)sulfamoyl]-6-methyl-N-(3,4,5-trifluorophenyl)-6,7-dihydro-4H-pyrazolo[1,5-a]pyrazine-5-carboxamide] | 156 |
| C[C@H]1Cn2ncc(S(=O)(=O)N3CCC(F)(F)C3)c2CN1C(=O)Nc1cc(F)c(F)c(F)c1 [Example 28, (6S)-3-(3,3-difluoropyrrolidin-1-yl)sulfonyl-6-methyl-N-(3,4,5-trifluorophenyl)-6,7-dihydro-4H-pyrazolo[1,5-a]pyrazine-5-carboxamide] | 168 |
| C[C@H]1Cn2ncc(S(=O)(=O)N3CC[C@@H](O)C3)c2CN1C(=O)Nc1cc(F)c(F)c(F)c1 [Example 29, (6S)-3-[(3R)-3-hydroxypyrrolidin-1-yl]sulfonyl-6-methyl-N-(3,4,5-trifluorophenyl)-6,7-dihydro-4H-pyrazolol[1,5-a]pyrazine-5-carboxamide] | 146 |
